From patent US20090111801A1, “SUBSTITUTED PYRAZINONE DERIVATIVES FOR USE AS A MEDICINE” (Janssen Pharmaceutica N.V., priority 2006, published 2009)

Legend:
hα2C receptor = molecular target: T1, hα2C receptor (Homo sapiens, UniProt P18825); assay: Radioligand binding experiment for α2C-adrenoceptor ([3H]raulwolscine, CHO cell membranes); conditions: [3H]raulwolscine binding; for IC50: read-out: h-α2C pIC50 (converted)
T1 construct: expressed in transfected cells; host or cells: CHO cells, stably transfected; membrane preparation
T1 sequence (P18825 1-462): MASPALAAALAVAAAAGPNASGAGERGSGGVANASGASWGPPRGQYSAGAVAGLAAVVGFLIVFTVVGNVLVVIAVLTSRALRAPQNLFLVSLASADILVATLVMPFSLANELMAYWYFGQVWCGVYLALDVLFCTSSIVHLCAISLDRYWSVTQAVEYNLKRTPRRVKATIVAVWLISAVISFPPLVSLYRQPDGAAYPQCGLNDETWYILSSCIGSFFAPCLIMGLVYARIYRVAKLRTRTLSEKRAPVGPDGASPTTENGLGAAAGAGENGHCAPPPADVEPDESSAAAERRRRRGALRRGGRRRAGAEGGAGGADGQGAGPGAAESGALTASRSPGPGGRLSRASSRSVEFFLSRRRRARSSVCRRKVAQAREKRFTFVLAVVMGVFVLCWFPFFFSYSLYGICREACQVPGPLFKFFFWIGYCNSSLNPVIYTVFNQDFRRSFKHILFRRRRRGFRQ

5HT-Transporter = molecular target: T2, 5HT-Transporter (Homo sapiens, UniProt P31645); assay: Binding experiment for the 5HT-transporter ([3H]paroxetine, human platelet membranes); conditions: [3H]paroxetine 0.5 nM; for IC50: read-out: h-5HTT pIC50 (converted)
T2 construct: Human platelet membranes (Oceanix Biosciences Corporation, Hanover, Md., USA) were thawed; tissue Oceanix Biosciences Corporation, Hanover, Md., USA; host or cells: human platelet membranes
How it was run: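 Competition binding of [3H]paroxetine to human platelet membranes in Tris-HCl 50 mM, 120 mM NaCl, 5 mM KCl, with filtration and scintillation counting.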

hα2A receptor = molecular target: T3, hα2A receptor (Homo sapiens, UniProt P08913); assay: Radioligand binding experiment for α2A-adrenoceptor ([3H]raulwolscine, CHO cell membranes); conditions: [3H]raulwolscine binding; for IC50: read-out: h-α2A pIC50 (converted)
T3 construct: expressed in transfected cells; host or cells: CHO cells, stably transfected; membrane preparation
T3 sequence (P08913 1-465): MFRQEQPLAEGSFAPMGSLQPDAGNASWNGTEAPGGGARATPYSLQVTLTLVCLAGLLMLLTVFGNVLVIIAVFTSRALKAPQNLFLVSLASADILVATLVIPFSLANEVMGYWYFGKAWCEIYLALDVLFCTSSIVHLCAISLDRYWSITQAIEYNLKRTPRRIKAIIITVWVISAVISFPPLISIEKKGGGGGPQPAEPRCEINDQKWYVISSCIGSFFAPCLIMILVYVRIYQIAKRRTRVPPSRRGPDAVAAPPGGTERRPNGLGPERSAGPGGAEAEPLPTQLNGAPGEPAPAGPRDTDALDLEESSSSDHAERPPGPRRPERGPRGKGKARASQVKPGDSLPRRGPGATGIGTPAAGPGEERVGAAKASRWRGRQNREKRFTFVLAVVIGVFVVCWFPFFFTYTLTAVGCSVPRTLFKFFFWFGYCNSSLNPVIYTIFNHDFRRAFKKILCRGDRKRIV

T2 sequence (P31645 whole entry): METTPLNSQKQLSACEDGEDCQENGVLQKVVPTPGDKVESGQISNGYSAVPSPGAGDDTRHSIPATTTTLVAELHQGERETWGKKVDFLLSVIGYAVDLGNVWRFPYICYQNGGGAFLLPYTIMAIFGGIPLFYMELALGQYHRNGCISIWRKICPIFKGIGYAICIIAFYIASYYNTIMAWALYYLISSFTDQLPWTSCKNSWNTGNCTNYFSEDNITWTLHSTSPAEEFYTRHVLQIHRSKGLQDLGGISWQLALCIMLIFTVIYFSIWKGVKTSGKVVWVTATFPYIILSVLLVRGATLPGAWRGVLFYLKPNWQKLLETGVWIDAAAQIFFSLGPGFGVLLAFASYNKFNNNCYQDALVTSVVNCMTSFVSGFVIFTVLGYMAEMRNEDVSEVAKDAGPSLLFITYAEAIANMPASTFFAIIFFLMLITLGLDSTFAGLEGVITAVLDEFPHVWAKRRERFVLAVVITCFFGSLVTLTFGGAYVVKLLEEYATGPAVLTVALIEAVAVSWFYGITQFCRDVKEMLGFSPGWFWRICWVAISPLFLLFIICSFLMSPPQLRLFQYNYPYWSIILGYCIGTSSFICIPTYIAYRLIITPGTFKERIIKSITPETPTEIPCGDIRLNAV

O=c1c(NC2CCN(C/C=C/c3ccccc3)CC2)nccn1Cc1ccncc1 [16-20]
IC50 (hα2C receptor): 251 nM
IC50 (5HT-Transporter): > 10000 nM
IC50 (hα2A receptor): 2000 nM

C/C(=C\c1ccccc1)CN1CCC(Nc2nccn(CC(=O)N(CCCN3CCCC3)Cc3ccc(F)cc3)c2=O)CC1 [1-137]
IC50 (hα2C receptor): 0.794 nM
IC50 (5HT-Transporter): 1000 nM
IC50 (hα2A receptor): 12.6 nM

C/C(=C\c1ccccc1)CN1CCC(Nc2nccn(CCCCN3C(=O)c4ccccc4C3=O)c2=O)CC1 [2-51]
IC50 (hα2C receptor): 3.98 nM
IC50 (5HT-Transporter): 158 nM
IC50 (hα2A receptor): 100 nM

O=c1c(NC2CCN(C/C=C/c3ccccc3)CC2)nccn1Cc1ccc(Br)cc1 [16-17]
IC50 (hα2C receptor): 316 nM
IC50 (5HT-Transporter): 794 nM
IC50 (hα2A receptor): 501 nM

C/C(=C\c1ccccc1)CN1CCC(Nc2nccn(CC(=O)N3CCC(N4CCCC4)CC3)c2=O)CC1 [2-17]
IC50 (hα2C receptor): 1.58 nM
IC50 (5HT-Transporter): 2000 nM
IC50 (hα2A receptor): 25.1 nM

CCN(CC)C(=O)NCc1ccc(-n2ccnc(NC3CCN(C/C(C)=C/c4ccccc4)CC3)c2=O)cc1 [1-117]
h-α2C pIC50 (hα2C receptor): 8.3
h-5HTT pIC50 (5HT-Transporter): 6.3
h-α2A pIC50 (hα2A receptor): 6.7

C/C(=C\c1ccccc1)CN1CCC(Nc2nccn(CCN3CCCCC3)c2=O)CC1 [2-3]
IC50 (hα2C receptor): 6.31 nM
IC50 (5HT-Transporter): 3160 nM
IC50 (hα2A receptor): 63.1 nM

COCCOCCn1ccnc(NC2CCN(C/C(C)=C/c3ccccc3)CC2)c1=O [3-21]
IC50 (hα2C receptor): 39.8 nM
IC50 (5HT-Transporter): 3980 nM
IC50 (hα2A receptor): 316 nM

C/C(=C\c1ccccc1)CN1CCC(Nc2nccn(-c3ccc(C(=O)N(CCN(C)C)Cc4ccccc4)cc3)c2=O)CC1 [1-112]
IC50 (hα2C receptor): 3.16 nM
IC50 (5HT-Transporter): 200 nM
IC50 (hα2A receptor): 39.8 nM

C/C(=C\c1ccccc1)CN1CCC(Nc2nccn(CC(=O)O)c2=O)CC1 [3-1]
h-α2C pIC50 (hα2C receptor): 7.4
h-5HTT pIC50 (5HT-Transporter): <5
h-α2A pIC50 (hα2A receptor): 6.6

C/C(=C\c1ccccc1)CN1CCC(Nc2nccn(CCOc3ccccc3)c2=O)CC1 [3-18]
IC50 (hα2C receptor): 31.6 nM
IC50 (5HT-Transporter): 158 nM
IC50 (hα2A receptor): 126 nM

CCCNC(=O)NCc1ccc(Cn2ccnc(NC3CCN(C/C(C)=C/c4ccccc4)CC3)c2=O)cc1 [1-115]
IC50 (hα2C receptor): 79.4 nM
IC50 (5HT-Transporter): 794 nM
IC50 (hα2A receptor): 251 nM

CC(=O)Nc1ccc(S(=O)(=O)NCc2ccc(Cn3ccnc(NC4CCN(C/C(C)=C/c5ccccc5)CC4)c3=O)cc2)cc1 [1-164]
IC50 (hα2C receptor): 20 nM
IC50 (5HT-Transporter): 501 nM
IC50 (hα2A receptor): 158 nM

COc1ccc(NC(=O)Cn2ccnc(NC3CCN(C/C(C)=C/c4ccccc4)CC3)c2=O)cc1 [1-63]
IC50 (hα2C receptor): 12.6 nM
IC50 (5HT-Transporter): 631 nM
IC50 (hα2A receptor): 100 nM

C/C(=C\c1ccccc1)CN1CCC(Nc2nccn(CC(=O)Nc3ccc(N4CCOCC4)cc3)c2=O)CC1 [1-45]
IC50 (hα2C receptor): 39.8 nM
IC50 (5HT-Transporter): 2000 nM
IC50 (hα2A receptor): 126 nM

C/C(=C\c1ccccc1)CN1CCC(Nc2nccn(CCCN(C)C(=O)c3ccccc3)c2=O)CC1 [1-74]
IC50 (hα2C receptor): 10 nM
IC50 (5HT-Transporter): 3160 nM
IC50 (hα2A receptor): 251 nM

C/C(=C\c1ccccc1)CN1CCC(Nc2nccn(Cc3ccc(CNS(C)(=O)=O)cc3)c2=O)CC1 [1-156]
IC50 (hα2C receptor): 31.6 nM
IC50 (5HT-Transporter): 1260 nM
IC50 (hα2A receptor): 158 nM

C/C(=C\c1ccccc1)CN1CCC(Nc2nccn(-c3ccc(NCCc4ccccc4)cc3)c2=O)CC1 [1-59]
IC50 (hα2C receptor): 10 nM
IC50 (5HT-Transporter): 1260 nM
IC50 (hα2A receptor): 79.4 nM

C/C(=C\c1ccccc1)CN1CCN(c2nccn(Cc3ccccc3)c2=O)CC1 [12-1]
IC50 (hα2C receptor): 63.1 nM
IC50 (5HT-Transporter): 3160 nM
IC50 (hα2A receptor): 63.1 nM

C/C(=C\c1ccccc1)CN1CCC(Nc2nccn(CC(=O)N(CCCn3ccnc3)Cc3ccc(F)cc3)c2=O)CC1 [1-143]
IC50 (hα2C receptor): 3.16 nM
IC50 (5HT-Transporter): 2000 nM
IC50 (hα2A receptor): 79.4 nM

COC(=O)CCCCn1ccnc(NC2CCN(C/C(C)=C/c3ccccc3)CC2)c1=O [3-8]
IC50 (hα2C receptor): 15.8 nM
IC50 (5HT-Transporter): 794 nM
IC50 (hα2A receptor): 79.4 nM

C/C(=C\c1ccccc1)CN1CCC(Nc2nccn(CC(=O)N3CCC(C(F)(F)F)CC3)c2=O)CC1 [2-12]
IC50 (hα2C receptor): 3.98 nM
IC50 (5HT-Transporter): 2000 nM
IC50 (hα2A receptor): 63.1 nM

C/C(=C\c1ccccc1)CN1CCC(Nc2nccn(CC(=O)N3CCN(c4ccc(C)c(C)c4)CC3)c2=O)CC1 [2-29]
IC50 (hα2C receptor): 31.6 nM
IC50 (5HT-Transporter): 100 nM
IC50 (hα2A receptor): 158 nM
